Measured values reported in PubChem BioAssay (NCI).
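Where inhibition never reached the appropriate level, the endpoint shown equals the highest concentration tested. Otherwise, values were interpolated linearly from a five-concentration, 48-hour dose response in 96-well plates. Here, GI50 denotes the concentration required for 50% inhibition of growth. The concentration for full growth arrest is given as TGI.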

Tests used:
Experiment in all cases: NCI-60 cell line screen, 48 h
MOLT-4 leukemia = test system: MOLT-4 leukemia
SK-MEL-2 melanoma = test system: SK-MEL-2 melanoma
DU-145 prostate = test system: DU-145 prostate
NCI-H522 lung = test system: NCI-H522 lung
SNB-75 CNS = test system: SNB-75 CNS
U251 CNS = test system: U251 CNS
LOX IMVI melanoma = test system: LOX IMVI melanoma
SK-OV-3 ovarian = test system: SK-OV-3 ovarian
786-0 renal = test system: 786-0 renal
NCI-H23 lung = test system: NCI-H23 lung
RXF 393 renal = test system: RXF 393 renal
HL-60(TB) leukemia = test system: HL-60(TB) leukemia
EKVX NSCLC = test system: EKVX NSCLC
SR leukemia = test system: SR leukemia
UACC-62 melanoma = test system: UACC-62 melanoma
HCT-15 colon = test system: HCT-15 colon
SNB-19 CNS = test system: SNB-19 CNS
MCF7 breast = test system: MCF7 breast
MDA-MB-231 breast = test system: MDA-MB-231 breast
COLO 205 colon = test system: COLO 205 colon
HS 578T breast = test system: HS 578T breast
SF-268 CNS = test system: SF-268 CNS
HCT-116 colon = test system: HCT-116 colon
A498 renal = test system: A498 renal
T-47D breast = test system: T-47D breast
M14 melanoma = test system: M14 melanoma
RPMI-8226 leukemia = test system: RPMI-8226 leukemia
ACHN renal = test system: ACHN renal
NCI/ADR-RES ovarian = test system: NCI/ADR-RES ovarian
UO-31 renal = test system: UO-31 renal
HT29 colon = test system: HT29 colon
OVCAR-8 ovarian = test system: OVCAR-8 ovarian
HOP-62 NSCLC = test system: HOP-62 NSCLC
NCI-H226 lung = test system: NCI-H226 lung
K-562 leukemia = test system: K-562 leukemia
BT-549 breast = test system: BT-549 breast
NCI-H460 lung = test system: NCI-H460 lung
OVCAR-4 ovarian = test system: OVCAR-4 ovarian
UACC-257 melanoma = test system: UACC-257 melanoma
TK-10 renal = test system: TK-10 renal
HCC-2998 colon = test system: HCC-2998 colon
HOP-92 NSCLC = test system: HOP-92 NSCLC
KM12 colon = test system: KM12 colon
OVCAR-5 ovarian = test system: OVCAR-5 ovarian
IGROV1 ovarian = test system: IGROV1 ovarian
MALME-3M melanoma = test system: MALME-3M melanoma
PC-3 prostate = test system: PC-3 prostate
SK-MEL-28 melanoma = test system: SK-MEL-28 melanoma
MDA-MB-435 = test system: MDA-MB-435
SW-620 colon = test system: SW-620 colon
CAKI-1 renal = test system: CAKI-1 renal
OVCAR-3 ovarian = test system: OVCAR-3 ovarian
SF-295 CNS = test system: SF-295 CNS
CCRF-CEM leukemia = test system: CCRF-CEM leukemia
SF-539 CNS = test system: SF-539 CNS
SN12C renal = test system: SN12C renal
A549 NSCLC = test system: A549 NSCLC
SK-MEL-5 melanoma = test system: SK-MEL-5 melanoma

NC(CSC(c1ccccc1)(c1ccccc1)c1ccc(F)cc1)C(=O)O (stereo unspecified)
GI50 (MOLT-4 leukemia): 1370 nM
TGI (MOLT-4 leukemia): > 46900 nM
GI50 (SK-MEL-2 melanoma): 1950 nM
GI50 (DU-145 prostate): 815 nM
TGI (DU-145 prostate): 4050 nM
GI50 (NCI-H522 lung): 300 nM
TGI (NCI-H522 lung): 704 nM
GI50 (SNB-75 CNS): 1740 nM
GI50 (U251 CNS): 374 nM
TGI (U251 CNS): > 60500 nM
GI50 (LOX IMVI melanoma): 891 nM
TGI (LOX IMVI melanoma): > 100000 nM
GI50 (SK-OV-3 ovarian): 348 nM
TGI (SK-OV-3 ovarian): 24100 nM
GI50 (786-0 renal): 2920 nM
TGI (786-0 renal): > 78900 nM
GI50 (NCI-H23 lung): 657 nM
TGI (NCI-H23 lung): > 28300 nM
GI50 (RXF 393 renal): 414 nM
GI50 (HL-60(TB) leukemia): 268 nM
TGI (HL-60(TB) leukemia): 2470 nM
GI50 (EKVX NSCLC): 525 nM
TGI (EKVX NSCLC): > 74200 nM
GI50 (SR leukemia): 253 nM
TGI (SR leukemia): 2930 nM
GI50 (UACC-62 melanoma): 408 nM
GI50 (HCT-15 colon): 511 nM
TGI (HCT-15 colon): > 100000 nM
GI50 (SNB-19 CNS): 458 nM
TGI (SNB-19 CNS): > 47400 nM
GI50 (MCF7 breast): 344 nM
TGI (MCF7 breast): > 100000 nM
GI50 (MDA-MB-231 breast): 326 nM
TGI (MDA-MB-231 breast): 5500 nM
GI50 (COLO 205 colon): 231 nM
TGI (COLO 205 colon): 667 nM
GI50 (HS 578T breast): 239 nM
TGI (HS 578T breast): 841 nM
GI50 (SF-268 CNS): 505 nM
TGI (SF-268 CNS): 35100 nM
GI50 (HCT-116 colon): 381 nM
TGI (HCT-116 colon): > 34600 nM
GI50 (A498 renal): 344 nM
TGI (A498 renal): 33800 nM
GI50 (T-47D breast): 365 nM
TGI (T-47D breast): 25500 nM
GI50 (M14 melanoma): 402 nM
TGI (M14 melanoma): > 100000 nM
GI50 (RPMI-8226 leukemia): 279 nM
TGI (RPMI-8226 leukemia): 12700 nM
GI50 (ACHN renal): 5040 nM
TGI (ACHN renal): > 100000 nM
GI50 (NCI/ADR-RES ovarian): 2980 nM
TGI (NCI/ADR-RES ovarian): 19200 nM
GI50 (UO-31 renal): 14100 nM
TGI (UO-31 renal): > 100000 nM
GI50 (HT29 colon): 803 nM
TGI (HT29 colon): > 27800 nM
GI50 (OVCAR-8 ovarian): 493 nM
TGI (OVCAR-8 ovarian): 41700 nM
GI50 (HOP-62 NSCLC): 3040 nM
TGI (HOP-62 NSCLC): > 85600 nM
GI50 (NCI-H226 lung): 5640 nM
TGI (NCI-H226 lung): > 76300 nM
GI50 (K-562 leukemia): 356 nM
GI50 (BT-549 breast): 1640 nM
TGI (BT-549 breast): 86800 nM
GI50 (NCI-H460 lung): 336 nM
TGI (NCI-H460 lung): 14900 nM
GI50 (OVCAR-4 ovarian): 9620 nM
TGI (OVCAR-4 ovarian): > 100000 nM
GI50 (UACC-257 melanoma): 635 nM
TGI (UACC-257 melanoma): > 100000 nM
GI50 (TK-10 renal): 13300 nM
TGI (TK-10 renal): > 100000 nM
GI50 (HCC-2998 colon): 438 nM
TGI (HCC-2998 colon): 11500 nM
GI50 (HOP-92 NSCLC): 701 nM
TGI (HOP-92 NSCLC): 29300 nM
GI50 (KM12 colon): 405 nM
TGI (KM12 colon): 20700 nM
GI50 (OVCAR-5 ovarian): 4180 nM
TGI (OVCAR-5 ovarian): > 76500 nM
GI50 (IGROV1 ovarian): 856 nM
TGI (IGROV1 ovarian): > 100000 nM
GI50 (MALME-3M melanoma): 2390 nM
TGI (MALME-3M melanoma): > 100000 nM
GI50 (PC-3 prostate): 400 nM
TGI (PC-3 prostate): > 35900 nM
GI50 (SK-MEL-28 melanoma): 6040 nM
TGI (SK-MEL-28 melanoma): > 100000 nM
GI50 (MDA-MB-435): 251 nM
TGI (MDA-MB-435): 654 nM
GI50 (SW-620 colon): 430 nM
TGI (SW-620 colon): > 100000 nM
GI50 (CAKI-1 renal): 790 nM
TGI (CAKI-1 renal): > 26800 nM
GI50 (OVCAR-3 ovarian): 355 nM
TGI (OVCAR-3 ovarian): 4380 nM
GI50 (SF-295 CNS): 346 nM
TGI (SF-295 CNS): 13000 nM
GI50 (CCRF-CEM leukemia): 289 nM
TGI (CCRF-CEM leukemia): > 100000 nM
GI50 (SF-539 CNS): 285 nM
TGI (SF-539 CNS): 921 nM
GI50 (SN12C renal): 564 nM
TGI (SN12C renal): > 70700 nM
GI50 (A549 NSCLC): 350 nM
TGI (A549 NSCLC): > 31700 nM
GI50 (SK-MEL-5 melanoma): 382 nM
TGI (SK-MEL-5 melanoma): > 70900 nM
